# Reference: US20160346406A1, “METHOD FOR INCREASING THE INTRAOCULAR PRESSURE IN AN ANIMAL” (INSTITUT NATIONAL DE LA SANTE ET DE LA RECHERCHE MEDICALE …, priority 2011, published 2016)
# Entries after “also recorded” stand apart in the source; their conditions may differ.
# What was measured:
# [1] = system: Long-Evans rats; test: Intra-ocular pressure monitoring after two subconjunctival injections of 0.1% BAK; assay type: in vivo, rat
# Method: Six male 8-week-old Long-Evans rats weighing 300-350 g were used. At D0, first subconjunctival injection of 0.1% BAK (100 μL) was performed in the right eye whereas the left eye received 0.9% NaCl vehicle only as control. A second injection was performed seven days after following the same protocol. Animals were daily monitored for intra-ocular pressure using a handheld tonometer, without sedation.
# Six male 8-week-old Long-Evans rats weighing 300-350 g were used. Animals were kept in pathogen-free conditions with food and water available ad libitum and housed in a 12-h light/12-h dark cycle. Ocular integrity was checked using the slit lamp biomicroscope. At D0, first subconjunctival injection of 0.1% BAK (100 μL) was performed in the right eye whereas the left eye received PBS only as control. A second injection was performed seven days after following the same protocol. Animals were daily monitored for intra-ocular pressure using a handheld tonometer (TonoLab, Medtronics, Jacksonville, Fla., USA) without sedation. All experiments were conducted in accordance with the Association for Research in Vision and Ophthalmology for the Use of Animals in Ophthalmic research.
# [2] = system: Long-Evans rats; test: In vivo outflow facility measurement; set-up: species or system rat; details: six days after second injection of 0.1% BAK; infusion 0.1, 0.2, 0.3 μL/min; vs vehicle-injected control eyes
# Method: Six days after the second injection of BAK, trabecular outflow facility was measured in vivo under general anaesthesia. The eyes were anteriorly canulated with a 30-G needle connected by tubing to a 1 mL syringe filled with PBS and loaded into a microdialysis infusion pump. Intraocular pressure was measured after a 10-min stabilization period for three different infusion flow rates (0.1, 0.2, and 0.3 μL/min). Aqueous humor outflow facility was calculated as the reciprocal of the slope of the respective ocular pressure/flow rate curves. Outflow facility (OF) was decreased in BAK-injected eyes as compared to vehicle-injected control eyes.
# Six days after the second injection of BAK, trabecular outflow facility was measured in vivo under general anaesthesia (intraperitoneal injection of ketamine 75 mg/kg and xylazine 10 mg/kg). Briefly, the eyes were anteriorly canulated with a 30-G needle connected by tubing to a 1 mL syringe filled with PBS and loaded into a microdialysis infusion pump (World Precision instruments). Intraocular pressure was measured after a 10-min stabilization period for three different infusion flow rates (0.1, 0.2, and 0.3 μL/min). Aqueous humor outflow facility (μL/min/mmHg) was calculated as the reciprocal of the slope of the respective ocular pressure/flow rate curves.
# [3] = system: trabecular cells; test: Ex vivo trabecular cell apoptosis (TUNEL labelling); assay type: in vivo, rat; details: BAK-injected eyes vs controls, end of experiments; P<0.01
# Method: At the end of the experiments, animals were euthanized and the eyes were immediately conditioned for TUNEL labelling. Eyes were fixed in 4% paraformaldehyde, embedded in an optimal cutting-temperature compound (OCT, Tissue-Tek, Miles Inc, Bayer Diagnostic, Puteaux, France) and cut into 15-μm cryosections. A terminal deoxynucleotidyl transferase-mediated dUTP nick-end labelling (TUNEL) assay (Roche Diagnostics, Meylan, France) was performed to detect apoptosis in rat ocular tissues following the manufacturer's instructions. Specimens were mounted in aqueous mounting medium with DAPI to be further analyzed using light epifluorescence microscopy.
# [4] = Dose-dependent effects of subconjunctival injections of BAK on intraocular pressure; assay type: in vivo; details: 3 subconjunctival injections (0.15 mL, each 48 h)
# Method: A series of 3 subconjunctival injections with 0.01% BAK (n=3), 0.05% BAK (n=3), 0.1%, BAK (n=6) or the vehicle (n=4) was performed (0.15 mL, each 48 h during 6 days) in the right eye of animals. Intraocular pressure was measured using a handled tonometer every two days from D0 to D28. Intraocular pressure is expressed as the difference between the treated eye (right) and the left control eye.
# [5] = system: ocular surface; test: In vivo assessment of BAK injection toxicity to the ocular surface (in vivo confocal microscopy, IVCM)
# Method: In vivo confocal microscopy (IVCM) using the Heidelberg Retina Tomograph II/Rostock Cornea Module (Heidelberg Engineering GmbH, Heidelberg, Germany) laser-scanning was carried out to assess putative damage to the ocular surface. Images size was 400 per 400 hundred pixels with a lateral resolution of 1 micrometer and an axial resolution of 2 micrometers. […] IVCM scores were used to evaluate ocular surface toxicity profiles in the 4 groups (vehicle, 0.01% BAK, 0.05% BAK, and 0.1% BAK) in different histological regions (superficial epithelium, basal epithelium, anterior stroma, limb and conjunctival stroma), 30 days after the first BAK administration (see Table 1). […] [table]
substance,measurement,setting,value
benzalkonium chloride [BAK],intra-ocular pressure after second injection,"[1]; 0.1% BAK (100 μL) subconjunctival at D0 and seven days after, vs control eyes, D9 and D14, P<0.01",significantly rose and remained significantly elevated; also recorded: Significant difference; also recorded: became significant
same,intra-ocular pressure after first injection,"[1]; 0.1% BAK (100 μL) subconjunctival, right eye, vs vehicle control eye, D7",no effect; also recorded: slight increase
same,trabecular (aqueous humor) outflow facility,[2],decreased; also recorded: low trabecular outflow facility
same,trabecular apoptotic cells (TUNEL labelling),[3],Significant difference; also recorded: increased
same,"intraocular pressure, difference between treated eye and left control eye","[4]; 0.05% BAK, D9",significant ocular hypertension
same,"intraocular pressure, difference between treated eye and left control eye","[4]; 0.1% BAK, D7, D11 and D14",significant increase
same,"intraocular pressure, difference between treated eye and left control eye","[4]; other times or BAK concentrations (0.01% BAK), D0 to D28",did not show significant changes
same,"IVCM subscore: limbus and conjunctiva, animals with peripheral vasodilatation",[5]; 0.01% BAK (n=3),one
same,"IVCM subscore: limbus and conjunctiva, animals with peripheral vasodilatation",[5]; 0.1% BAK (n=6),three
same,IVCM subscore: basal epithelium,"[5]; 4 groups (vehicle, 0.01%, 0.05%, 0.1% BAK)",unchanged
same,IVCM subscore: anterior stroma,[5]; BAK 0.1% group,trend for hyperplasia of the subbasal nerve plexi
same,IVCM: posterior stroma and endothelium toxicity,[5]; all BAK concentrations,no toxicity was found
same,IVCM subscore: superficial epithelium,[5]; all the animals,slight epithelial swelling
same,overall IVCM score (ocular surface toxicity),"[5]; vehicle, 0.01%, 0.05% and 0.1% BAK groups, 30 days after first BAK administration, Kruskal Wallis test, p>0.05",No significant difference; also recorded: No statistical difference
same,anterior eye abnormality / ocular surface pathological changes,[5]; whatever the BAK concentration,Neither anterior eye abnormality nor ocular surface pathological changes were found
